Data reported in US8202862B2, “Substituted piperidines” (Bayer Intellectual Property GmbH, priority 2009, dated 2012).

Experiments:
[1] = biological target: T1, human protease activated receptor 1 (PAR1) (Homo sapiens, UniProt P25116); assay: Cellular functional in vitro test (PAR1 test cell, aequorin luminescence); type: cell-based; conditions: HEK293-derived PAR1 test cell; PAR1 agonist at EC50; calcium/aequorin luminescence
T1 construct: the cell stably expresses the endogenous human PAR1 receptor; endogenous in cells; host or cells: recombinant HEK293-derived cell line; only the mitochondrial aequorin is recombinant
T1 sequence (P25116 22-425): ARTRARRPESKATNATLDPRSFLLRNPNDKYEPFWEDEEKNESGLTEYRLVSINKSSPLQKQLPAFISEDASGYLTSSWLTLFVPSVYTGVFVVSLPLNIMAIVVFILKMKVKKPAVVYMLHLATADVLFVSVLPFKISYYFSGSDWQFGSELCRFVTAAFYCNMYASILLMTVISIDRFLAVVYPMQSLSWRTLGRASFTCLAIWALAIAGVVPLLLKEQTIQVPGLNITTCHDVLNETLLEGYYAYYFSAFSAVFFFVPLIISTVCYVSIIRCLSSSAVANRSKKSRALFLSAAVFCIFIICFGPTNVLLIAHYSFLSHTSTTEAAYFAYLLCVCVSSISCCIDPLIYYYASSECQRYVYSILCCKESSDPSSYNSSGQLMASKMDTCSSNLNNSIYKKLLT
From the text: Cellular Functional in vitro Test
A recombinant cell line is used to identify […] of the human protease activated receptor 1 (PAR1) and to quantify the activity of the substances described herein. The cell is originally derived from a human embryonal kidney cell (HEK293; ATCC: American Type Culture Collection, Manassas, Va. 20108, U.S.A.). The test cell line constitutively expresses a modified form of the calcium-sensitive photoprotein aequorin which, after reconstitution with the cofactor coelenterazine, emits light when the free calcium concentration in the inner mitochondrial compartment is increased (Rizzuto R, Simpson A W, Brini M, Pozzan T.; Nature 1992, 358, 325-327). Additionally, the cell stably expresses the endogenous human PAR1 receptor and the endogenous purinergic receptor P2Y2. The resulting PAR1 test cell responds to stimulation of the endogenous PAR1 or P2Y2 receptor with an intracellular release of calcium ions, which can be quantified through the resulting aequorin luminescence with a suitable luminometer (Milligan G, Marshall F, Rees S, Trends in Pharmacological Sciences 1996, 17, 235-237).
For the testing of the substance specificity, the effect thereof after activation of the endogenous PAR1 receptor is compared with the effect after activation of the endogenous purinergic P2Y2 receptor which utilizes the same intracellular signal path.
Test procedure: The cells are plated out two days (48 hours) before the test in culture medium (DMEM F12, supplemented with 10% FCS, 2 mM glutamine, 20 mM HEPES, 1.4 mM pyruvate, 0.1 mg/ml gentamycin, 0.15% sodium bicarbonate; BioWhittaker Cat. # BE04-687Q; B-4800 Verviers, Belgium) in 384-well microtitre plates and kept in a cell incubator (96% atmospheric humidity, 5% v/v CO2, 37° C.). On the day of the test, the culture medium is replaced by a Tyrode's solution (in mM: 140 sodium chloride, 5 potassium chloride, 1 magnesium chloride, 2 calcium chloride, 20 glucose, 20 HEPES), which additionally contains the cofactor coelenterazine (25 μM) and glutathione (4 mM), and the microtitre plate is then incubated for a further 3-4 hours. The test substances are then pipetted onto the microtitre plate, and 5 minutes after the transfer of the test substances into the wells of the microtitre plate the plate is transferred into the luminometer, a PAR1 agonist concentration which corresponds to EC50 is added and the resulting light signal is immediately measured in the luminometer. To distinguish an antagonist substance action from a toxic action, the endogenous purinergic receptor is immediately subsequently activated with agonist (ATP, final concentration 10 μM) and the resulting light signal is measured.

[2] = tested on: platelet-rich plasma; assay: Platelet aggregation in plasma (triggered by thrombin receptor agonist TRAP6, SFLLRN; turbidimetry according to Born); type: cell-based; conditions: 10 min, human platelet-rich plasma, 10 min at 37° C.
Method: 1.c) Platelet Aggregation in Plasma
Platelet aggregation is determined using blood from healthy volunteers of both genders, who had not received any thrombocyte aggregation-influencing medication for the last ten days. The blood is taken up into monovettes (Sarstedt, Nümbrecht, Germany) which contain, as anticoagulant, sodium citrate 3.8% (1 part citrate+9 parts blood). To obtain platelet-rich plasma, the citrated whole blood is centrifuged at 140 g for 20 min.
For the aggregation measurements, aliquots of the platelet-rich plasma with increasing concentrations of test substance are incubated at 37° C. for 10 min. Subsequently, aggregation is triggered by addition of a thrombin receptor agonist (TRAP6, SFLLRN) in an aggregometer and determined at 37° C. by means of the turbidimetry method according to Born (Born, G. V. R., Cross M. J., The Aggregation of Blood Platelets; J. Physiol. 1963, 168, 178-195). The SFLLRN concentration leading to maximum aggregation is, if appropriate, determined individually for each donor.
To calculate the inhibitory effect, the maximum increase in light transmission (amplitude of the aggregation curve in %) is determined within 5 minutes after addition of the agonist in the presence and absence of test substance, and the inhibition is calculated. The inhibition curves are used to calculate the concentration which inhibits aggregation by 50%.

SMILES: COCCc1noc(C2CC(c3ccc(OC(F)(F)F)cc3)CN(C(=O)N3CC[S+]([O-])CC3)C2)n1 (racemic) [Example 1, {3-[3-(2-Methoxyethyl)-1,2,4-oxadiazol-5-yl]-5-[4-(trifluoromethoxy)phenyl]piperidin-1-yl}-(oxidothiomorpholin-4-yl)methanone]
- IC50 [1]: 43 nM

SMILES: O=C(N1CC[S+]([O-])CC1)N1CC(c2ccc(C(F)(F)F)cc2)CC(c2nc(C3CC3)no2)C1 (racemic) [Example 20, {3-(3-Cyclopropyl-1,2,4-oxadiazol-5-yl)-5-[4-(trifluoromethyl)phenyl]piperidin-1-yl}(1-oxidothio-morpholin-4-yl)methanone]
- IC50 [1]: 23 nM

SMILES: COC1(c2noc(C3CC(c4ccc(CC(F)(F)F)cc4)CN(C(=O)N4CCS(=O)(=O)CC4)C3)n2)CC1 (racemic) [Example 61, (1,1-Dioxidothiomorpholin-4-yl){3-[3-(1-methoxycyclopropyl)-1,2,4-oxadiazol-5-yl]-5-[4-(2,2,2-trifluoroethyl)phenyl]piperidin-1-yl}methanone]
- IC50 [1]: 15.7 nM

SMILES: COCCc1noc(C2CC(c3ccc(OC(F)(F)F)cc3)CN(C(=O)N3CCS(=O)(=O)CC3)C2)n1 (single isomer, unassigned) [Example 8, (1,1-Dioxidothiomorpholin-4-yl){3-[3-(2-methoxyethyl)-1,2,4-oxadiazol-5-yl]-5-[4-(trifluoromethoxy)phenyl]piperidin-1-yl}methanone]
- IC50 [2]: 0.29 nM
- IC50 [1]: 33 nM

SMILES: O=C(N1CCS(=O)(=O)CC1)N1CC(c2ccc(OC(F)(F)F)cc2)CC(c2nc(C3CC3)no2)C1 (single isomer, unassigned) [Example 10, {3-(3-Cyclopropyl-1,2,4-oxadiazol-5-yl)-5-[4-(trifluoromethoxy)phenyl]piperidin-1-yl}(1,1-dioxidothiomorpholin-4-yl)methanone]
- IC50 [2]: 0.49 nM
- IC50 [1]: 8 nM

SMILES: CCc1ccc(C2CC(c3nc(C4CC4)no3)CN(C(=O)N3CCS(=O)(=O)CC3)C2)cc1 (single isomer, unassigned) [Example 15, [3-(3-Cyclopropyl-1,2,4-oxadiazol-5-yl)-5-(4-ethylphenyl)piperidin-1-yl](1,1-dioxidothiomorpholin-4-yl)methanone]
- IC50 [1]: 5.1 nM

SMILES: CCOCCc1noc(C2CC(c3ccc(C(F)(F)F)cc3)CN(C(=O)N3CCS(=O)(=O)CC3)C2)n1 (single isomer, unassigned) [Example 31, (1,1-Dioxidothiomorpholin-4-yl){3-[3-(2-ethoxyethyl)-1,2,4-oxadiazol-5-yl]-5-[4-(trifluoromethyl)phenyl]piperidin-1-yl}methanone]
- IC50 [1]: 32 nM

SMILES: CC(F)(F)c1ccc(C2CC(c3nc(C4CC4)no3)CN(C(=O)N3CC[S+]([O-])CC3)C2)cc1 (single isomer, unassigned) [Example 52, {3-(3-Cyclopropyl-1,2,4-oxadiazol-5-yl)-5-[4-(1,1-difluoroethyl)phenyl]piperidin-1-yl}-(1-oxido-thiomorpholin-4-yl)methanone]
- IC50 [2]: 0.58 nM
- IC50 [1]: 4.7 nM

SMILES: CC(F)(F)c1ccc(C2CC(c3nc(C4CC4)no3)CN(C(=O)N3CCS(=O)(=O)CC3)C2)cc1 (single isomer, unassigned) [Example 54, {3-(3-Cyclopropyl-1,2,4-oxadiazol-5-yl)-5-[4-(1,1-difluoroethyl)phenyl]piperidin-1-yl}-(1,1-dioxidothiomorpholin-4-yl)methanone]
- IC50 [1]: 4.3 nM

SMILES: CCc1ccc(C2CC(c3nc(CCOC)no3)CN(C(=O)N3CCS(=O)(=O)CC3)C2)cc1 (stereo not shown) [Example 13, (1,1-Dioxidothiomorpholin-4-yl){3-(4-ethylphenyl)-5-[3-(2-methoxyethyl)-1,2,4-oxadiazol-5-yl]-piperidin-1-yl}methanone]
- IC50 [2]: 0.17 nM
